pIC50: −log10 of the molar value. The source made the active and inactive calls. The rule behind the calls is not given here.
How the values were obtained:
BEAS-2B = experiment: Antiproliferative activity against human BEAS2B cells after 24 hrs by CCK8 assay; assay type: functional, cell-based
HepG2 = experiment: Antiproliferative activity against human HepG2 cells after 24 hrs by CCK8 assay; assay type: functional, cell-based; conditions: HepG2, 24 h
PANC-1 [1] = experiment: Antiproliferative activity against human PANC1 cells after 24 hrs by CCK8 assay; assay type: functional, cell-based; conditions: PANC-1, 24 h
HCC1806 = experiment: Antiproliferative activity against human HCC1806 cells after 24 hrs by CCK8 assay; assay type: functional, cell-based; conditions: HCC1806, 24 h
HT-29 = experiment: Antiproliferative activity against human HT-29 cells after 24 hrs by CCK8 assay; assay type: functional, cell-based; conditions: HT-29, 24 h
PANC-1 [2] = experiment: Induction of apoptosis in human PANC1 cells assessed as viable cells at 10 uM after 24 hrs by FITC-Annexin V/propidium iodide staining-based flow cytometric analysis (reference value: 94.7 to 98.7%); assay type: functional; conditions: PANC-1, 24 h, read-out: Activity
PANC-1 [3] = experiment: Induction of apoptosis in human PANC1 cells assessed as early apoptotic cells at 15 uM after 24 hrs by FITC-Annexin V/propidium iodide staining-based flow cytometric analysis (reference value: 0.5 to 3.2%); assay type: functional
PANC-1 [4] = experiment: Induction of apoptosis in human PANC1 cells assessed as late apoptotic cells at 25 uM after 24 hrs by FITC-Annexin V/propidium iodide staining-based flow cytometric analysis (reference value: 0.0 to 0.7%); assay type: functional
PANC-1 [5] = experiment: Cell cycle arrest in human PANC1 cells assessed as accumulation at G2/M phase at 5 uM after 24 hrs by RNAase/propidium iodide staining-based flow cytometric analysis (reference value: 6.83 to 11.82%); assay type: functional
PANC-1 [6] = experiment: Induction of apoptosis in human PANC1 cells assessed as nuclear fragmentation at 5 uM after 24 hrs by Hoechst 33258 staining based fluorescence microscopic analysis; assay type: functional, cell-based
PANC-1 [7] = experiment: Induction of apoptosis in human PANC1 cells assessed as nuclear chromatin condensation at 5 uM after 24 hrs by Hoechst 33258 staining based fluorescence microscopic analysis; assay type: functional, cell-based
PANC-1 [8] = experiment: Cell cycle arrest in human PANC1 cells assessed as accumulation at G1 phase at 10 uM after 24 hrs by RNAase/propidium iodide staining-based flow cytometric analysis (reference value: 67.93 to 75.87%); assay type: functional
PANC-1 [9] = experiment: Induction of apoptosis in human PANC1 cells assessed as nuclear chromatin condensation at 25 uM after 24 hrs by Hoechst 33258 staining based fluorescence microscopic analysis; assay type: functional, cell-based
PANC-1 [10] = experiment: Cell cycle arrest in human PANC1 cells assessed as accumulation at S phase at 10 uM after 24 hrs by RNAase/propidium iodide staining-based flow cytometric analysis (reference value: 11.66 to 19.02%); assay type: functional
PANC-1 [11] = experiment: Cell cycle arrest in human PANC1 cells assessed as accumulation at G2/M phase at 10 uM after 24 hrs by RNAase/propidium iodide staining-based flow cytometric analysis (reference value: 6.83 to 11.82%); assay type: functional
PANC-1 [12] = experiment: Induction of apoptosis in human PANC1 cells assessed as late apoptotic cells at 5 uM after 24 hrs by FITC-Annexin V/propidium iodide staining-based flow cytometric analysis (reference value: 0.0 to 0.7%); assay type: functional
PANC-1 [13] = experiment: Induction of apoptosis in human PANC1 cells assessed as viable cells at 15 uM after 24 hrs by FITC-Annexin V/propidium iodide staining-based flow cytometric analysis (reference value: 94.7 to 98.7%); assay type: functional; conditions: PANC-1, 24 h, read-out: Activity
PANC-1 [14] = experiment: Induction of apoptosis in human PANC1 cells assessed as nuclear fragmentation at 25 uM after 24 hrs by Hoechst 33258 staining based fluorescence microscopic analysis; assay type: functional, cell-based
PANC-1 [15] = experiment: Cell cycle arrest in human PANC1 cells assessed as accumulation at S phase at 15 uM after 24 hrs by RNAase/propidium iodide staining-based flow cytometric analysis (reference value: 11.66 to 19.02%); assay type: functional
PANC-1 [16] = experiment: Induction of apoptosis in human PANC1 cells assessed as necrotic cells at 25 uM after 24 hrs by FITC-Annexin V/propidium iodide staining-based flow cytometric analysis (reference value: 0.7 to 1.4%); assay type: functional
PANC-1 [17] = experiment: Cell cycle arrest in human PANC1 cells assessed as accumulation at G2/M phase at 15 uM after 24 hrs by RNAase/propidium iodide staining-based flow cytometric analysis (reference value: 6.83 to 11.82%); assay type: functional
PANC-1 [18] = experiment: Induction of apoptosis in human PANC1 cells assessed as viable cells at 25 uM after 24 hrs by FITC-Annexin V/propidium iodide staining-based flow cytometric analysis (reference value: 94.7 to 98.7%); assay type: functional; conditions: PANC-1, 24 h, read-out: Activity
PANC-1 [19] = experiment: Induction of apoptosis in human PANC1 cells assessed as late apoptotic cells at 10 uM after 24 hrs by FITC-Annexin V/propidium iodide staining-based flow cytometric analysis (reference value: 0.0 to 0.7%); assay type: functional
PANC-1 [20] = experiment: Induction of apoptosis in human PANC1 cells assessed as necrotic cells at 5 uM after 24 hrs by FITC-Annexin V/propidium iodide staining-based flow cytometric analysis (reference value: 0.7 to 1.4%); assay type: functional
PANC-1 [21] = experiment: Induction of apoptosis in human PANC1 cells after 24 hrs by FITC-Annexin V/propidium iodide staining-based flow cytometric analysis; assay type: functional, cell-based
PANC-1 [22] = experiment: Induction of apoptosis in human PANC1 cells assessed as early apoptotic cells at 5 uM after 24 hrs by FITC-Annexin V/propidium iodide staining-based flow cytometric analysis (reference value: 0.5 to 3.2%); assay type: functional
PANC-1 [23] = experiment: Induction of apoptosis in human PANC1 cells assessed as late apoptotic cells at 15 uM after 24 hrs by FITC-Annexin V/propidium iodide staining-based flow cytometric analysis (reference value: 0.0 to 0.7%); assay type: functional
PANC-1 [24] = experiment: Cell cycle arrest in human PANC1 cells assessed as accumulation at G1 phase at 5 uM after 24 hrs by RNAase/propidium iodide staining-based flow cytometric analysis (reference value: 67.93 to 75.87%); assay type: functional
PANC-1 [25] = experiment: Induction of apoptosis in human PANC1 cells assessed as early apoptotic cells at 25 uM after 24 hrs by FITC-Annexin V/propidium iodide staining-based flow cytometric analysis (reference value: 0.5 to 3.2%); assay type: functional
PANC-1 [26] = experiment: Induction of apoptosis in human PANC1 cells assessed as nuclear shrinkage at 5 uM after 24 hrs by Hoechst 33258 staining based fluorescence microscopic analysis; assay type: functional, cell-based
PANC-1 [27] = experiment: Induction of apoptosis in human PANC1 cells assessed as necrotic cells at 10 uM after 24 hrs by FITC-Annexin V/propidium iodide staining-based flow cytometric analysis (reference value: 0.7 to 1.4%); assay type: functional
PANC-1 [28] = experiment: Induction of apoptosis in human PANC1 cells assessed as viable cells at 5 uM after 24 hrs by FITC-Annexin V/propidium iodide staining-based flow cytometric analysis (reference value: 94.7 to 98.7%); assay type: functional; conditions: PANC-1, 24 h, read-out: Activity
PANC-1 [29] = experiment: Induction of apoptosis in human PANC1 cells assessed as nuclear shrinkage at 25 uM after 24 hrs by Hoechst 33258 staining based fluorescence microscopic analysis; assay type: functional, cell-based
PANC-1 [30] = experiment: Induction of apoptosis in human PANC1 cells assessed as early apoptotic cells at 10 uM after 24 hrs by FITC-Annexin V/propidium iodide staining-based flow cytometric analysis (reference value: 0.5 to 3.2%); assay type: functional
PANC-1 [31] = experiment: Cell cycle arrest in human PANC1 cells assessed as accumulation at G2/M phase at 25 uM after 24 hrs by RNAase/propidium iodide staining-based flow cytometric analysis (reference value: 6.83 to 11.82%); assay type: functional
PANC-1 [32] = experiment: Cell cycle arrest in human PANC1 cells assessed as accumulation at G1 phase at 15 uM after 24 hrs by RNAase/propidium iodide staining-based flow cytometric analysis (reference value: 67.93 to 75.87%); assay type: functional
PANC-1 [33] = experiment: Cell cycle arrest in human PANC1 cells assessed as accumulation at S phase at 5 uM after 24 hrs by RNAase/propidium iodide staining-based flow cytometric analysis (reference value: 11.66 to 19.02%); assay type: functional
PANC-1 [34] = experiment: Induction of apoptosis in human PANC1 cells assessed as necrotic cells at 15 uM after 24 hrs by FITC-Annexin V/propidium iodide staining-based flow cytometric analysis (reference value: 0.7 to 1.4%); assay type: functional
PANC-1 [35] = experiment: Cell cycle arrest in human PANC1 cells assessed as accumulation at G1 phase at 25 uM after 24 hrs by RNAase/propidium iodide staining-based flow cytometric analysis (reference value: 67.93 to 75.87%); assay type: functional
PANC-1 [36] = experiment: Cell cycle arrest in human PANC1 cells assessed as accumulation at S phase at 25 uM after 24 hrs by RNAase/propidium iodide staining-based flow cytometric analysis (reference value: 11.66 to 19.02%); assay type: functional

CC(=O)O[C@H]1C(=O)[C@@]2(C)[C@H]([C@H](OC(=O)c3ccccc3)[C@]3(O)C[C@H](OC(=O)[C@H](O)[C@@H](NC(=O)c4ccccc4)c4ccccc4)C(C)=C1C3(C)C)[C@]1(OC(C)=O)CO[C@@H]1C[C@@H]2O [PACLITAXEL] was tested, and the pIC50 (BEAS-2B) was 8.15, the pIC50 (HepG2) was 8.05 and the pIC50 (PANC-1 [1]) was 7.40. It also gave a pIC50 (HCC1806) of 9.00.
In the case of COC(=O)[C@]1(Cc2ccc3c(c2)C[C@H](C(C)(C)O)O3)OC(=O)C(O)=C1c1ccc(O)cc1 [BUTYROLACTONE IV], the pIC50 (HT-29) was < 4.70, the pIC50 (BEAS-2B) was < 4.70 and the pIC50 (HepG2) was < 4.70. For the same molecule, the pIC50 (PANC-1 [1]) was < 4.70 and the pIC50 (HCC1806) was < 4.70.
With COC(=O)[C@]1(Cc2ccc3c(c2)CC(O)C(C)(C)O3)OC(=O)C(O)=C1c1ccccc1 (some centres undefined) the pIC50 (HT-29) was < 4.70, the pIC50 (BEAS-2B) was < 4.70 and the pIC50 (HepG2) was < 4.70. For the same molecule, the pIC50 (PANC-1 [1]) was < 4.70 and the pIC50 (HCC1806) was < 4.70.
In the case of COC(=O)[C@]1(Cc2ccc(O)c(C[C@@H](O)C(C)C)c2)OC(=O)C(O)=C1c1ccc(O)cc1, the pIC50 (HT-29) was < 4.70, the pIC50 (BEAS-2B) was < 4.70 and the pIC50 (HepG2) was < 4.70. For the same molecule, the pIC50 (PANC-1 [1]) was < 4.70 and the pIC50 (HCC1806) was < 4.70.
With COC(=O)[C@]1(Cc2ccc3c(c2)C[C@H](O)C(C)(C)O3)OC(=O)C(O)=C1c1ccc(O)cc1 [BUTYROLACTONE V] the pIC50 (HT-29) was < 4.70, the pIC50 (BEAS-2B) was < 4.70 and the pIC50 (HepG2) was < 4.70. For the same molecule, the pIC50 (PANC-1 [1]) was < 4.70 and the pIC50 (HCC1806) was < 4.70.
COC(=O)[C@]1(Cc2ccc(O)c(CC=C(C)C)c2)OC(=O)C(O)=C1c1ccc(O)c(CC=C(C)C)c1 gave a viability at 10 µM (PANC-1 [2]) of 87.9%, an Activity (PANC-1 [3]) of 48.5% and an Activity (PANC-1 [4]) of 11.6%. The Activity (PANC-1 [5]) was 14.43%, the Activity (PANC-1 [6]) was “Active” and the Activity (PANC-1 [7]) was “Active”. For the same molecule, the Activity (PANC-1 [8]) was 45.36%, the Activity (PANC-1 [9]) was “Active” and the Activity (PANC-1 [10]) was 38.96%. The pIC50 (HT-29) was < 4.70, the Activity (PANC-1 [11]) was 10.09% and the Activity (PANC-1 [12]) was 0.3%. The viability at 15 µM (PANC-1 [13]) was 49.1%, the Activity (PANC-1 [14]) was “Active” and the Activity (PANC-1 [15]) was 38.47%. For the same molecule, the pIC50 (BEAS-2B) was < 4.70, the Activity (PANC-1 [16]) was 1.3% and the pIC50 (HepG2) was 5.05. It also gave an Activity (PANC-1 [17]) of 38.12%, a viability at 25 µM (PANC-1 [18]) of 44.5% and a pIC50 (PANC-1 [1]) of 5.28. For the same molecule, the Activity (PANC-1 [19]) was 1.2%, the Activity (PANC-1 [20]) was 0.2% and the Activity (PANC-1 [21]) was “Dose-dependent effect”. For the same molecule, the Activity (PANC-1 [22]) was 4.8%, the Activity (PANC-1 [23]) was 0.7% and the Activity (PANC-1 [24]) was 49.89%. For the same molecule, the Activity (PANC-1 [25]) was 42.7%, the Activity (PANC-1 [26]) was “Active” and the Activity (PANC-1 [27]) was 1.6%. The pIC50 (HCC1806) was 4.75, the viability at 5 µM (PANC-1 [28]) was 94.7% and the Activity (PANC-1 [29]) was “Active”. The Activity (PANC-1 [30]) was 9.3%, the Activity (PANC-1 [31]) was 35.78% and the Activity (PANC-1 [32]) was 20.44%. It also gave an Activity (PANC-1 [33]) of 35.11%, an Activity (PANC-1 [34]) of 1.6% and an Activity (PANC-1 [35]) of 20.46%. The Activity (PANC-1 [36]) was 41.26%.
